According to patent publication US20070207145A1, “MOUSE/HUMAN […] ANTI-PHE[…] AND USES THEREOF” (BOARD OF TRUSTEES OF THE UNIVERSITY OF ARKANSAS, priority 2003, published 2007):

Tests used:
PCP receptor = details: drug discrimination and PCP receptor binding assays; cited from earlier work
[1] = system: PCP's adverse health effects; experiment: dose-dependent effects of mAb6B5 IgG on health and behavior of rats continuously infused with PCP; type: in vivo
Procedure: This series of experiments assessed the dose-dependent effects mAb6B5 IgG on measures of health and behavior (Laurenzana et al., 2003). Rats were implanted with s.c. osmotic minipumps filled to deliver PCP at a rate of 18 mg/kg/day. Baseline PCP-induced locomotor activity was assessed (24 hr after start of PCP infusion), and then saline or various doses of mAb6B5 IgG were administered i.v. The doses of mAb6B5 ranged from 1 mol-eq of serum PCP concentration at steady state (1.53 g/kg of mAb6B5 IgG), down to 0.003 mol-eq (0.005 g/kg).
On a daily basis, rats were assessed on the amount of food eaten, body weight, general health, and evidence of chromodacryorrhea (“bloody tears” or red lacrimal secretions), an indicator of PCP-induced stress. […] The dose-dependent effects of mAb6B5 IgG on body weight produced some of the most interesting and profound effects (FIG. 8). […] PCP-induced reductions in feeding and drinking behavior obviously contributed to the weight loss in these groups. But their eating behavior normalized by day 4, probably secondary to the development of tolerance to the drug. This allowed these rats to better maintain their health and well-being. […] The PCP-induced weight loss achieved maximum on about day 4 of the experiment. […] 25% of the rats died or had to be sacrificed for humane reasons. […]

[2] = in humans; cited from earlier work
[3] = rats, s.c. infusion 18 mg/kg/day; cited from earlier work
[4] = radioimmunoassay (RIA) with [3H]PCP; type: binding
Procedure: A 100 μl aliquot of [^3H]PCP (30,000-40,000 dpm) in RIA buffer (50 mM Tris-HCl adjusted to pH 7.6, 0.15M NaCl, 0.1% BSA and 0.2% NaN3) was added to 50×14 mm sample tubes (Sarsedt, Princeton, N.J.). Then 100 γl of appropriate concentration of test ligand was added to duplicate tubes. […] A 100 μl aliquot of this dilution was then added to all tubes except the tubes for non-specific binding. To nonspecific binding tubes 100 μl of RIA buffer was added. After vortex mixing, the tubes were incubated at 4-8° C. overnight. Next, 1 ml of RIA buffer containing 5% goat anti-mouse IgG (Pel-Freez Biologicals, Rogers, Ark.) and 5% polyethylene glycol 8000 (J. T. Baker Chemical Co.) was added. The tubes were incubated for 15 min at 4-8° C. and centrifuged at the same temperature for 15 min at 2000×g to precipitate the antibody-bound reactivity. The supernatant fluid was aspirated and the pellet was resuspended in the same test tube with 2 ml of scintillation fluid (Liquiscint, National Diagnostics, Manville, N.J.). The tube was placed in a 7 ml scintillation vial and the concentration of [^3H]PCP was determined by liquid scintillation spectrometry.
The IC50 for both methods very closely approximates the affinity of an antibody.

Molecule: CCNC1(c2ccccc2)CCCCC1 [PCE, N-ethyl-1-phenylcyclohexylamine]
- potency relative to PCP (times more potent) (PCP receptor): ~6 times

Molecule: c1ccc(C2(N3CCCCC3)CCCCC2)cc1 [PCP, Phencyclidine]
- rats that died or had to be sacrificed ([1]; PCP-saline and PCP-0.003 mol Eq groups, days 4 through 7, 18 mg/kg/day): 25%
- animals that died as a result of PCP administration ([1]; repeated PCP-saline control experiment): 1 of 4
- volume of distribution (Vd) [2]: 6.2 L/kg
- half-life (t1/2) [3]: 4 h

Molecule: c1csc(C2(N3CCCCC3)CCCCC2)c1 [TCP, 1-[1-(2-thienyl)cyclohexyl]piperidine]
- potency relative to PCP (times more potent) (PCP receptor): about 1.3 times

B1: ch-mAb6B5: mouse/human chimeric anti-PCP monoclonal antibody: mAb6B5 variable domains on human IgG2 heavy chain and kappa light chain constant domains (antibody)
heavy: MECSCVMLFLLSGTAGVLSEVQLQQSGPELVKPGASVKMSCKASGYTGTDYYIHWMKQSHGKSLEWIGYIYPNNGGNGYNQKFKGKATLTVDKSSSTAYMELRTLTSEDSAVYYCGRSTWDDFDYWGQGTTLTVSSASTKGPSVFPLAPCSRSTSESTAALGCLVKDYFPEPVTVSWNSGALTSGVHTFPAVLQSSGLYSLSSVVTVPSSNFGTQTYTCNVDHKPSNTKVDKTVERKCCVECPPCPAPPVAGPSVFLFPPKPKDTLMISRTPEVTCVVVDVSHEDPEVQFNWYVDGVEVHNAKTKPREEQFNSTFRVVSVLTVVHQDWLNGKEYKCKVSNKGLPAPIEKTISKTKGQPREPQVYTLPPSREEMTKNQVSLTCLVKGFYPSDIAVEWESNGQPENNYKTTPPMLDSDGSFFLYSKLTVDKSRWQQGNVFSCSVMHEALHNHYTQKSLSLSPGK
light: MKLPVRLLVLMFWIPASSSDVLMTQTPLSLPVSLGDQASISCRSSQTIVHSNGNTYLEWYLQKPGQSPKLLIYKVSNRFSGVPDRFSGSGSGTDFTLKISRVEAEDLGVYYCFQGTHAPYTFGGGTKLEIKTAAAPSVFIFPPSDEQLKSGTASVVCLLNNFYPREAKVQWKVDNALQSGNSQESVTEQDSKDSTYSLSSTLTLSKADYEKHKVYACEVTHQGLSSPVTKSFNRGEC
modifications: Amino acid sequence of anti-PCP ch-mAb6B5 heavy chain.; Amino acid sequence of anti-PCP ch-mAb6B5 light chain.
- IC50 [4]: 1.6 nM
- Kd ([4]; chimeric antibody): 1.6 nM
